In PMC12329412, “Study of the mass balance, biotransformation, and safety of [^14C]IBI351 in healthy Chinese subjects” (Journal of Biomedical Research, 2024):

How the values were obtained:
[1] = Radioactive metabolite profiling in pooled plasma, urine and feces; format: in vivo, human; details: for Plasma (0–144 h) % of AUC (share of total plasma radioactivity exposure) / Plasma (0–144 h) Metabolite/parent drug (%): pooled plasma 0–144 h; for Plasma (0–144 h) Metabolite/parent drug (%): relative to the parent drug; for Feces+urine % of dose: sum of feces 0–192 h and urine 0–96 h; for Feces (0–192 h) % of dose: pooled feces 0–192 h
Description: Moreover, four plasma samples at 1 h, 4 h, 48 h, and 96 h were obtained by mixing them in equal volumes. Urine samples were pooled across individuals at an equal volume to obtain one pooled sample within each time period of 0–24 h, 24–48 h, and 48–96 h. Fecal samples (0–192 h) were pooled at the same weight percentages across collection intervals for each subject. Moreover, fecal samples were pooled across individuals at an equal weight to obtain one pooled sample within each time period of 0–72 h, 72–120 h, and 120–192 h. Plasma, urine, and fecal homogenates were extracted and concentrated using organic solvents, and then the redissolved solutions were used for metabolite profile analysis. The plasma, urine, and fecal extracts were separated on HPLC columns, and the HPLC flow fractions were collected in Deepwell LumaPlateTM-96 plates at 15 s/fraction using an automatic fraction collector. The radioactivity of each fraction was quantified using a microplate detector with ARC® Convert and Evaluation software (3.0.2.379) and transformed to obtain the radioactive metabolite spectra. The radioactive metabolite spectra of each sample were integrated to acquire the peak area of each radioactive metabolite peak, the proportion of each spectral peak to the total radioactive intensity of the sample, and the proportion of the radioactivity of the major metabolites to the TRA in the corresponding blood, urine, and fecal samples. Therefore, the ratio of metabolites' concentrations to the total drug exposure (AUC) in the plasma and the ratio of each metabolite's level to the dose administered in the urine and feces were calculated. Liquid chromatography with low-energy radionuclide detection and mass spectrometry was used to identify the main metabolites in human plasma, urine, and fecal samples and to identify the possible biotransformation pathways of IBI351 in these samples.

[2] = ref [11],[19]; cited from earlier work

Compound | Plasma (0–144 h) % of AUC (share of total plasma radioactivity exposure) [1] | Plasma (0–144 h) Metabolite/parent drug (%) [1] [%] | Feces+urine % of dose [1] | Feces (0–192 h) % of dose [1] | Urine (0–96 h) % of dose ([1]; pooled urine 0–96 h) | average time to reach Cmax [2] [h] | plasma protein binding rate [2] [%] | terminal elimination half-life [2] [h] | volume of distribution [2] [L] | grade of associated adverse events [2]
CCC(=O)N1CCN2c3c(c(=O)n(-c4c(C)ccnc4C(C)C)c4nc(-c5c(O)cccc5F)c(Cl)cc34)N(C)C(=O)C2C1 (centres unmarked) [M618] | 0.09 % of AUC | 1.98 | 0.35 % of dose | – | – | – | – | – | – | –
Cc1ccnc(C(C)C)c1-n1c(=O)c2c(c3cc(Cl)c(-c4c(O)cccc4F)nc31)N1CCN(C(=O)C(O)CO)CC1C(=O)N2C (centres unmarked) [M650] | – | 5.95 | 2.70 % of dose | 2.47 % of dose | – | – | – | – | – | –
Cc1ccnc(C(C)C)c1-n1c(=O)c2c(c3cc(Cl)c(-c4c(O)cccc4F)nc31)N1CCN(C(=O)CCSCC(N)C(=O)O)CC1C(=O)N2C (centres unmarked) [M737] | 6.17 % of AUC | 135.90 | 45.36 % of dose | 39.87 % of dose | 5.49 % of dose | – | – | – | – | –
CC(=O)NC(CSCCC(=O)N1CCN2c3c(c(=O)n(-c4c(C)ccnc4C(C)C)c4nc(-c5c(O)cccc5F)c(Cl)cc34)N(C)C(=O)C2C1)C(=O)O (centres unmarked) [M779] | 0.05 % of AUC | 1.10 | 2.70 % of dose | 2.59 % of dose | – | – | – | – | – | –
C=C(F)C(=O)N1CCN(c2nc(OC[C@@H]3CCCN3C)nc3c2CCN(c2cccc4cccc(Cl)c24)C3)C[C@@H]1CC#N [adagrasib] | – | – | – | – | – | 6 | 98 | 23 | 942 | –
C=CC(=O)N1CCN(c2nc(=O)n(-c3c(C)ccnc3C(C)C)c3nc(-c4c(O)cccc4F)c(F)cc23)[C@@H](C)C1 [sotorasib] | – | – | – | – | – | 1 | – | 5 | 211 | ≥ 3
